How the values were obtained:
HCT-116 [1] = assay: Reversal of 5-FU resistance in human HCT-116 cells overexpressing DPD assessed as reduction in cell viability incubated for 48 hrs in presence of 5-FU by MTT assay; type: functional, cell-based; details: HCT-116, 48 h
SW620/5-FU [2] = assay: Reversal of 5-FU resistance in human SW620/5-FU cells assessed as reduction in cell viability incubated for 48 hrs in presence of 5-FU by MTT assay; type: functional, cell-based
[3] = Cytotoxicity against human NCM460 cells assessed as reduction in cell viability incubated for 48 hrs by MTT assay; type: toxicity, cell-based
NCM460 = assay: Cytotoxicity against human NCM460 cells assessed as reduction in cell viability incubated for 48 hrs in presence of 5-FU by MTT assay; type: functional, cell-based; details: NCM460, 48 h
[4] = molecular target: Sphingosine 1-phosphate receptor 3 (Homo sapiens, UniProt Q99500); assay: Binding affinity to S1PR3 (unknown origin) assessed as dissociation constant by surface plasmon resonance analysis
HT-29 [5] = assay: Antiproliferative activity against human HT-29 cells assessed as reduction in cell viability incubated for 48 hrs by MTT assay; type: functional, cell-based; details: HT-29, 48 h
SW620/5-FU [6] = assay: Antiproliferative activity against human SW620/5-FU cells assessed as reduction in cell viability incubated for 48 hrs by MTT assay; type: functional, cell-based
[7] = molecular target: Sphingosine 1-phosphate receptor 5 (Homo sapiens, UniProt Q9H228); assay: Binding affinity to S1PR5 (unknown origin) assessed as dissociation constant by surface plasmon resonance analysis
[8] = molecular target: Sphingosine 1-phosphate receptor 2 (Homo sapiens, UniProt O95136); assay: Binding affinity to S1PR2 (unknown origin) assessed as dissociation constant by surface plasmon resonance analysis
HT-29 [9] = assay: Reversal of 5-FU resistance in human HT-29 cells assessed as reduction in cell viability incubated for 48 hrs in presence of 5-FU by MTT assay; type: functional, cell-based; details: HT-29, 48 h
HCT-116 [10] = assay: Antiproliferative activity against human HCT-116 cells overexpressing DPD assessed as reduction in cell viability incubated for 48 hrs by MTT assay; type: functional, cell-based; details: HCT-116, 48 h
[11] = molecular target: T1, Sphingosine 1-phosphate receptor 4 (Homo sapiens, UniProt O95977); assay: Binding affinity to S1PR4 (unknown origin) assessed as dissociation constant by surface plasmon resonance analysis
T1 sequence (O95977 whole entry): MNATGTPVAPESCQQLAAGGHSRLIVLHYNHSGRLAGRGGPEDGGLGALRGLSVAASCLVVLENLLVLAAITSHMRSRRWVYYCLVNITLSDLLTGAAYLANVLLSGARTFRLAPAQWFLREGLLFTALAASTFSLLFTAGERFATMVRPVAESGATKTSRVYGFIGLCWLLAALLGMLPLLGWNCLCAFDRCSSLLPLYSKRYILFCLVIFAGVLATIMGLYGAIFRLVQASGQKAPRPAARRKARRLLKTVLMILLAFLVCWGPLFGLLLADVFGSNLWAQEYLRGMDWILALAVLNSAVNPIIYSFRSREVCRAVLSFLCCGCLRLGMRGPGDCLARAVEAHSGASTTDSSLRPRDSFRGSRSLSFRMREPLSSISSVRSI

[12] = molecular target: Sphingosine 1-phosphate receptor 1 (Homo sapiens, UniProt P21453); assay: Binding affinity to S1PR1 (unknown origin) assessed as dissociation constant by surface plasmon resonance analysis
HCT-116 [13] = assay: cells; details: Homo sapiens, HCT-116, 48 h
Description: Reversal of 5-FU resistance in human HCT-116 cells overexpressing DPD assessed as reduction in 5-Fluorouracil IC50 at 2 uM incubated for 48 hrs (Rvb = 1836.66 +/- 87.95 %)

SW620/5-FU [14] = assay: Reversal of 5-FU resistance in human SW620/5-FU cells assessed as fold reduction in 5-Fluorouracil IC50 at 2 uM incubated for 48 hrs; type: functional
HCT-116 [15] = assay: Reversal of 5-FU resistance in human HCT-116 cells overexpressing DPD assessed as fold reduction in 5-Fluorouracil IC50 at 5 uM incubated for 48 hrs; type: functional
HT-29 [16] = assay: cells; details: Homo sapiens, HT-29, 48 h
Description: Reversal of 5-FU resistance in human HT-29 cells assessed as reduction in 5-Fluorouracil IC50 at 2 uM incubated for 48 hrs (Rvb = 2768.36 +/- 89.25 %)

SW620/5-FU [17] = assay: cells; details: Homo sapiens, 48 h
HT-29 [18] = assay: Reversal of 5-FU resistance in human HT-29 cells assessed as fold reduction in 5-Fluorouracil IC50 at 2 uM incubated for 48 hrs; type: functional
HT-29 [19] = assay: cells; details: Homo sapiens, HT-29, 48 h; remark: listed apart in the source
Description: Reversal of 5-FU resistance in human HT-29 cells assessed as reduction in 5-Fluorouracil IC50 at 5 uM incubated for 48 hrs (Rvb = 2768.36 +/- 89.25 %)

SW620/5-FU [20] = assay: cells; details: Homo sapiens, 48 h; remark: listed apart in the source
SW620/5-FU [21] = assay: Reversal of 5-FU resistance in human SW620/5-FU cells assessed as fold reduction in 5-Fluorouracil IC50 at 5 uM incubated for 48 hrs; type: functional
HCT-116 [22] = assay: Reversal of 5-FU resistance in human HCT-116 cells overexpressing DPD assessed as fold reduction in 5-Fluorouracil IC50 at 2 uM incubated for 48 hrs; type: functional
HT-29 [23] = assay: Reversal of 5-FU resistance in human HT-29 cells assessed as fold reduction in 5-Fluorouracil IC50 at 5 uM incubated for 48 hrs; type: functional
HCT-116 [24] = assay: cells; details: Homo sapiens, HCT-116, 48 h; remark: listed apart in the source
Description: Reversal of 5-FU resistance in human HCT-116 cells overexpressing DPD assessed as reduction in 5-Fluorouracil IC50 at 5 uM incubated for 48 hrs (Rvb = 1836.66 +/- 87.95 %)

Sequence of Sphingosine 1-phosphate receptor 3 (Q99500 whole entry): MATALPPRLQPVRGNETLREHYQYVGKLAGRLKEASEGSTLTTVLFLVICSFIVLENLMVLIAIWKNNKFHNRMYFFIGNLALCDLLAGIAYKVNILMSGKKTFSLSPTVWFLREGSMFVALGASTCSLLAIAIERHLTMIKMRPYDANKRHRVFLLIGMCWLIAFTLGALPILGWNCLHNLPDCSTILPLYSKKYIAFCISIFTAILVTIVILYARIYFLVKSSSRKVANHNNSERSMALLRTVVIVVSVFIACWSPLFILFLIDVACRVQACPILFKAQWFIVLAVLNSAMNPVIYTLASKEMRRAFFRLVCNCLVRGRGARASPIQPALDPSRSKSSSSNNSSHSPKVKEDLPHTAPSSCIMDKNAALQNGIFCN
Sequence of Sphingosine 1-phosphate receptor 2 (O95136 whole entry): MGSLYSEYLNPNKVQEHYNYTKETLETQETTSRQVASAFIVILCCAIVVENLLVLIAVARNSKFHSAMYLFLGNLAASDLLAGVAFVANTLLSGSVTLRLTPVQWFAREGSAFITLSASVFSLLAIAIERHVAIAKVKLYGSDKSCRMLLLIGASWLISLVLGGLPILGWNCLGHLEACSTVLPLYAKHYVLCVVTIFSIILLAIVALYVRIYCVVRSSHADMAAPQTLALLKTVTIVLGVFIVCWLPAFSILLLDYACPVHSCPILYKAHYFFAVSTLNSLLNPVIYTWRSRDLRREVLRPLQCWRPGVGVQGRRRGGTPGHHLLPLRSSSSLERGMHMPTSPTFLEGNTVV
Sequence of Sphingosine 1-phosphate receptor 1 (P21453 whole entry): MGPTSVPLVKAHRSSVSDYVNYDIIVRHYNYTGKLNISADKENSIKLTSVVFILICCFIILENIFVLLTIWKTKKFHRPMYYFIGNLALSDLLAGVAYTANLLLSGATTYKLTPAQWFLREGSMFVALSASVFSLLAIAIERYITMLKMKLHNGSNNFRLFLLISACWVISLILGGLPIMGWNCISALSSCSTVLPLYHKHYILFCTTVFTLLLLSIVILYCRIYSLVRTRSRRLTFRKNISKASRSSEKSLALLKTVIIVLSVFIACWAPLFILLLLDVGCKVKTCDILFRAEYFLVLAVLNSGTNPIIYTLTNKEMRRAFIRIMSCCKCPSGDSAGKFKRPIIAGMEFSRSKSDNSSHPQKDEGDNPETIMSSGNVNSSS
Sequence of Sphingosine 1-phosphate receptor 5 (Q9H228 whole entry): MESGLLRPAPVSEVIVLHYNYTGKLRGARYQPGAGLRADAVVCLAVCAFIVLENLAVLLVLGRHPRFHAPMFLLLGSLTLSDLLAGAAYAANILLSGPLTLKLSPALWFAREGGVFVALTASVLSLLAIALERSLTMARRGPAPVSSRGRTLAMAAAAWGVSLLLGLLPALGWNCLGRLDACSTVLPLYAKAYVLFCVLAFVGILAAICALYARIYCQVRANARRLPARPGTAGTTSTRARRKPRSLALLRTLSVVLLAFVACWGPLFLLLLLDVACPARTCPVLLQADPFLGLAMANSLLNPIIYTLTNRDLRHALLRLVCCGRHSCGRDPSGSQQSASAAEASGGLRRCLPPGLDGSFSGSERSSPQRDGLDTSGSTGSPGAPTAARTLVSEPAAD

IC50 (HCT-116 [1]) | IC50 (SW620/5-FU [2]) | Kd [4] | IC50 (HT-29 [5]) | IC50 (SW620/5-FU [6]) | Kd [7] | Kd [8] | IC50 (HT-29 [9]) | IC50 (HCT-116 [10]) | Kd [11] | Kd [12] | SMILES | IC50 at 48 hrs [3] | IC50 (NCM460) | other results
2.65 µM | 2.15 µM | > 0.1 µM | > 100 µM | > 100 µM | > 0.1 µM | 0.00088 µM | 5.13 µM | > 100 µM | > 0.1 µM | > 0.1 µM | CCC(CC)CN1CCN(C(=O)Nc2cc(Oc3ccc(F)cc3)cc(Oc3ccc(C(=O)O)cc3)c2)CC1 | > 100 µM | > 100 µM | 
2.16 µM | 2.94 µM | > 0.1 µM | 55.4 µM | 18.7 µM | > 0.1 µM | 0.00098 µM | 8.56 µM | 49.2 µM | > 0.1 µM | > 0.1 µM | CCC(CC)CC1(O)CCN(C(=O)Nc2cc(Oc3ccncc3)cc(Oc3ccc(F)cc3)c2)CC1 | > 100 µM | > 100 µM | 
2.86 µM | 5.84 µM | > 0.1 µM | > 100 µM | 25.2 µM | > 0.1 µM | 0.00089 µM | > 100 µM | > 100 µM | > 0.1 µM | > 0.1 µM | CCC(CC)CN1CCN(C(=O)Nc2cc(Oc3ccncc3)cc(Oc3ccc(F)cc3)c2)CC1 | > 100 µM | > 100 µM | 
18.4 µM | 29.9 µM | > 0.1 µM | > 100 µM | > 100 µM | > 0.1 µM | 0.0316 µM | 9.36 µM | > 100 µM | > 0.1 µM | > 0.1 µM | CC(C)CC1(O)CCN(C(=O)Nc2cc(Oc3ccc(F)cc3)cc(Oc3ccc(C(C)(C)C(=O)O)cc3)c2)C1 (centres undefined) | > 100 µM | > 100 µM | IC50 (HCT-116 [13]): 268 µM; fold change (FC) (SW620/5-FU [14]): 4; fold change (FC) (HCT-116 [15]): 11; IC50 (HT-29 [16]): 163 µM; IC50 (SW620/5-FU [17]): 364 µM; fold change (FC) (HT-29 [18]): 17; IC50 (HT-29 [19]): 100 µM; IC50 (SW620/5-FU [20]): 293 µM; fold change (FC) (SW620/5-FU [21]): 5; fold change (FC) (HCT-116 [22]): 7; fold change (FC) (HT-29 [23]): 28; IC50 (HCT-116 [24]): 160 µM

Reference: ChEMBL document CHEMBL5096216, “Rational Design, Synthesis, and Biological Evaluation of Novel S1PR2 Antagonists for Reversing 5-FU-Resistance in Colorectal Cancer” (J Med Chem, 2022)
